Entries after “also recorded” stand apart in the source; their conditions may differ.
Experiments:
hippocampus = settings: low-dose, MCI patients (Bakker et al., 2012); cited from earlier work
AD mouse models = AD mouse models (Sanchez et al., 2012); cited from earlier work
hippocampal neurons [1] = assay: inhibition-excitation (I/E) ratio from sEPSCs and sIPSCs (integrated conductances GE, GI); assay type: cell-based
From the text: The inhibition-excitation (I/E) ratio constitutes an important factor in firing rate homeostasis, and in pathology of epilepsy. To assess the effects of DHODH inhibition on the I/E ratio, the spontaneous excitatory and inhibitory postsynaptic currents (sEPSCs, sIPSCs, respectively) were isolated at the same cell based on the reversal potentials of α-amino-3-hydroxy-5-methyl-4-isoxazolepropionic acid receptor (AMPAR)-mediated excitatory and GABAAR-mediated inhibitory currents, and the integrated excitatory (FIG. 4A) and inhibitory conductance's (GE, GI, respectively) were calculated (FIGS. 4B-4D).

[2] = tested on: CA3-CA1 hippocampal connections; assay: in vivo fEPSP recording after ICV injection; settings: ICV 100 mM/1 μl daily for 3 days, bursts of 3 stimuli at 50 Hz, anesthetized mice
Procedure: Finally, we used intracerebroventricular (ICV) injection of teriflunomide to test its effect on hippocampal synaptic plasticity in vivo. For this, we injected teriflunomide (100 mM/1 μl daily) for 3 consecutive days and then performed electrophysiological fEPSP recording in vivo in anesthetized (2% isoflurane) mice. The recording electrodes were placed in the CA1 stratum radiatum, while the stimulating electrode was paced at the Schaffer Collateral fibers. We examined how inhibition of DHODH in the brain affects short-term synaptic plasticity in the hippocampus evoked by high-frequency spike bursts.

[3] = tested on: pilocarpine-induced seizures; assay: pilocarpine model of TLE, behavioral seizure duration; assay type: in vivo; settings: 15 mg/kg IP daily for 3 days, pilocarpine 330 mg/kg IP, C57 male mice, p=0.0157
From the text: In order to determine the potential therapeutic benefit of DHODH inhibition for epilepsy treatment, we used the pilocarpine model of TLE, which is one of the most common mouse models that recapitulates many aspects of the human pathology. The pilocarpine model of TLE appears to be highly isomorphic with the human disease including induction of acute status epilepticus, and latent period followed by the appearance of spontaneous recurrent seizures, as well as the occurrence of widespread lesions in the CNS (Curia et al., 2008). These features make it highly suitable for testing the efficacy of antiepileptic drugs (Leite et al., 2002). We performed intraperitoneal (IP) daily injections of teriflunomide (15 mg/kg) or vehicle for 3 days, in 6-week-old male mice of C57 background. On the third day, mice were injected subcutaneously (SC) with 2 mg/kg scopolamine to prevent peripheral effects, and 30 min later with 330 mg/kg pilocarpine IP. […] Because seizure duration correlates with hippocampal pathology in the pilocarpine model (Mazzuferi et al., 2012), these in vivo results emphasize the potential of DHODH inhibition as a therapeutic approach in the most common form of epilepsy.

hippocampal cultures [4] = assay: firing rate homeostasis: baclofen perturbation in MEA cultures; assay type: cell-based
Procedure: The stable reduction in MFR induced by teriflunomide could have been the result of either impairment of homeostatic compensation mechanisms, or a change in a firing set-point value. A perturbation of firing rate in vivo results in re-normalization to its set-point level 2 days following perturbation through homeostatic mechanisms (Hengen et al., 2013). […] In order to determine the role DHODH inhibition in homeostatic process, we added 10 μM baclofen following 12 hr incubation with teriflunomide (FIG. 7).

hippocampal neurons [5] = assay: mEPSC recording (excitatory quantal events); assay type: cell-based
Procedure: In this experiment we tested whether DHODH inhibition affects excitatory quantal events, by recording mEPSCs from hippocampal neurons under control conditions and 2 days following teriflunomide application (FIG. 5). As found, chronic teriflunomide incubation triggered a significant decrease of ˜26% in mEPSC amplitude (FIGS. 5A-5B).

[6] = tested on: CA3-CA1 synaptic transmission; assay: fEPSP recording in acute hippocampal slices
From the text: Having established an essential role of DHODH activity in regulating MFR and E/I balance in hippocampal cultures, we asked whether acute DHODH inhibition modulates basal synaptic transmission in a more intact preparation—acute hippocampal slices. We evoked electrical stimulation in CA3 axons, comprising the Schaffer Collateral (SC) pathway of the hippocampus, and recorded the extracellular field excitatory postsynaptic potentials (fEPSP) in the stratum radiatum. We estimated the effect of teriflunomide (50 μM) on basal CA3-CA1 synaptic transmission evoked by low frequency stimulation of 0.1 Hz.
Next, we examined how DHODH inhibition affects short-term synaptic plasticity evoked by high-frequency spike bursts. This type of plasticity plays an important role in working memory function.

hippocampal neurons [7] = assay: intrinsic excitability: action potentials evoked by somatic current injections (F-I curves); assay type: cell-based; settings: teriflunomide incubation
Procedure: Modulation of intrinsic excitability is an important facet of neuronal adaptation. In this experiment we elicited action potentials (APs) in response to increasing somatic current injections ranging from 0 to +500 pA (F-I curves) in the presence of postsynaptic receptor blockers (FIGS. 3A-3B). As found, teriflunomide induced a reduction in the maximal firing frequency from 31.4±2.29 Hz to 17.2±3.34 after 4 hr of incubation, and to 16.25±3.06 Hz after 2 days of incubation (FIGS. 3B-3C). Input resistance was not affected by teriflunomide application (FIGS. 3D-3E).

[8] = tested on: cultured hippocampal neurons; assay: multi-electrode array (MEA) recording of spiking activity / mean firing rate; assay type: cell-based; settings: for effect of teriflunomide on MFR in DHODH knockdown cultures: 50 μM teriflunomide in shDHODH-infected cultures
From the text: In order to test how DHODH targeting affects neuronal activity, we examined the effect of the DHODH inhibitor teriflunomide on cultured hippocampal neurons grown on a multi-electrode chip (MEA) that allows a long-term monitoring of spiking activity from many neurons simultaneously (FIGS. 1A-1C).
In order to test the specificity of teriflunomide effect on firing rate, we used a lentiviral-based shRNA delivery system (shDHODH; TRCN0000294665, Sigma Aldrich) to knockdown DHODH expression in hippocampal cultures.
In order to test whether the change in MFR resulting from DHODH inhibition is induced by the reduction of available uridine (a precursor of pyrimidines) or results from a change in the mitochondrial function, we co-applied 100 μM uridine mono-phosphate with teriflunomide in MEA recordings.

hippocampal cultures [9] = settings: returns to baseline level after 2 days (Slomowitz et al., 2015); cited from earlier work

CC[C@@H](C(N)=O)N1CCCC1=O [levetiracetam]
memory (hippocampus): improvement | metabolic hyperactivity in the hippocampus (hippocampus): reduces | brain hyperactivity (AD mouse models): reduces | cognitive impairments (AD mouse models): improves

C/C(O)=C(\C#N)C(=O)Nc1ccc(C(F)(F)F)cc1 [teriflunomide, (2Z)-2-cyano-3-hydroxy-N-[4-(trifluoromethyl)phenyl]but-2-enamide]
I/E ratio (GI/GE per neuron) (hippocampal neurons [1]; 4 hr to 2 days of teriflunomide incubation): elevated and remained high; also recorded: significant and stable increase | average integrated excitatory conductance (GE) (hippocampal neurons [1]; 2 days of teriflunomide incubation): remained lower for 2 days; also recorded: stable during 2 days of incubation | average integrated excitatory conductance (GE) (hippocampal neurons [1]; after 4 hr of teriflunomide incubation): dramatic decrease | integrated inhibitory conductance (GI) (hippocampal neurons [1]; after either 4 hr or 2 days of teriflunomide incubation): no significant change; also recorded: no significant reduction | short-term synaptic facilitation in vivo [2]: increase | behavioral seizure duration [3]: significantly reduces | MFR, new lower baseline value (hippocampal cultures [4]; 12 hr (overnight) incubation with 50 μM teriflunomide, original baseline 4.30±0.0.44 Hz): 2.50±0.38 Hz | decrease in mEPSC amplitude (hippocampal neurons [5]; 2 days teriflunomide incubation vs control): 26% | mEPSC frequency (hippocampal neurons [5]; 2 days teriflunomide incubation, p=0.08): not significantly affected; also recorded: did not reach statistical significance | fEPSP amplitude (basal CA3-CA1 transmission) ([6]; 50 μM teriflunomide, 0.1 Hz stimulation): gradual reduction | short-term synaptic facilitation (relative fEPSP amplitude within the burst) ([6]; bursts of 5 stimuli at 50 Hz, 30 min after teriflunomide): profoundly increased | input resistance (Rin) (hippocampal neurons [7]): no change; also recorded: not affected | effect of teriflunomide on MFR in DHODH knockdown cultures [8]: did not produce long-term changes in MFR | effect of teriflunomide on MFR in DHODH knockdown cultures ([8]; listed as Teriflunomide): did not have a significant effect | neuronal mean firing rate (MFR) ([8]; 50 μM teriflunomide, after 4 h of application, baseline 3.95±0.27 Hz): 1.58±0.17 Hz | stability of the lower MFR induced by teriflunomide ([8]; 50 μM teriflunomide, time following application): stable for 14 hr | reduction in MFR with co-applied uridine ([8]; 100 μM uridine mono-phosphate co-applied with 50 μM teriflunomide, timescale of 2 days): does not occlude the reduction in maximum firing rate (MFR); also recorded: did not occlude the effect of teriflunomide on MFR; also recorded: did not occlude the reduction in MFR

NCC(CC(=O)O)c1ccc(Cl)cc1 (stereo not drawn) [baclofen]
firing rate after baclofen alone (hippocampal cultures [9]): profound inhibition | MFR acutely after baclofen (hippocampal cultures [4]; 10 μM baclofen added in the presence of teriflunomide): 0.3678±0.08 Hz | MFR stabilized over a 2-day period after baclofen (hippocampal cultures [4]; 10 μM baclofen in the presence of teriflunomide, 48 h): 2.00±0.35 Hz
